Experimental data taken from paper PMC9198986, “Controlling Doxorubicin Release from a Peptide Hydrogel through Fine-Tuning of Drug–Peptide Fiber Interactions” (Biomacromolecules, 2022).
Where no end group is shown, it is not given here.

How the values were obtained:
3T3 murine fibroblasts = assay: 3T3 fibroblast viability under hydrogel inserts (PicoGreen dsDNA); assay type: cell-based, mouse; conditions: non-loaded 14 mM hydrogel in insert above 3T3 cells; for cell viability with non-loaded hydrogels: over 48 h, PicoGreen dsDNA
Protocol: 3T3 murine fibroblasts were seeded (1.5 × 10^4 cells cm^–2) in 12-well cell culture plates and 1.5 mL of DMEM supplemented with 10% FBS added per well. 400 μl of hydrogels (14 mM) with and without Dox (240 μM) were plated within 12-well cell culture plate inserts (ThinCert, Greiner Bio-One, pore size 1 μm) and placed above the cells. At selected time points, cells were retrieved from the cell culture wells, and the amount of double-stranded DNA (dsDNA) content was measured using PicoGreen dsDNA assay (Life Technologies, Carlsbad, CA, USA) following the manufacturer’s protocol.
Finally, we confirmed that the Dox released from the hydrogels was still active by investigating its effect on 3T3 mouse fibroblasts. This was achieved by culturing the fibroblasts in 2D in cell culture wells and placing the hydrogels (loaded and non-loaded with Dox) in inserts equipped with porous membranes above the cells (see schematics in Figure 6). This experimental setup was used to avoid a direct contact between the hydrogels and the cells but still allow the drug to diffuse from the hydrogels into the cell culture media. Dox is known to affect cell proliferation and viability via DNA intercalation and inhibition of topoisomerase II.[24],[25] Therefore, at the selected time points, the effect of Dox on fibroblasts viability was evaluated by measuring the total amount of double-stranded DNA (dsDNA), which is directly proportional to the number of live cells present.

[1] = Gels biodegradability: fraction of intact peptide after incubation in 50% FBS (RP-HPLC); assay type: in vitro ADME, bovine; conditions: 14 mM hydrogel, 37 °C; for susceptibility to enzymatic degradation, rank: up to 72 h; for level of degradation up to 12 h: first 12 h
Protocol: Peptide hydrogels (14 mM) were incubated in either PBS or 50% FBS ddH2O solution at 37 °C. At selected time points (2, 5, 10, 24, 48, and 72 h), the gels were disassembled by dilution to 1 mg mL^–1 in a 1% trifluoroacetic acid (TFA) water/acetonitrile (50/50 v/v) solution. Reversed phase-high-performance liquid chromatography (RP-HPLC) analyses were conducted at 25 °C on an Ultimate 3000 HPLC system (Dionex) equipped with a variable wavelength UV detector (wavelength used 210 nm) and a gradient pump. Separation was performed on a Phenomenex Jupiter 4μ Proteo column 90A° (250 × 4.66 mm) fitted with a 300 Guard Cartridge (4.3 × 10 mm). A flow rate of 1 mL min^–1 was used for all separations. The mobile phase consisted of a mixture of water: TFA(0.1%)—solvent A and acetonitrile/TFA(0.1%)—solvent B. An elution gradient of 90% solvent A/10% solvent B to 30% solvent A/70% solvent B over 45 min was used. 100 μL of sample aliquots was injected into the column using an ACC-3000 autosampler. Data were analyzed using Chromoleon 6.80 software. The peptide stability was expressed as a fraction of intact peptide present in the sample at sampling time t using the following equation [drawing 1] 1 where AUCPBS (t) and AUCFBS (t) are the intact peptide peak areas under the HPLC curves obtained at the sampling time t for hydrogels incubated with PBS and 50% FBS ddH2O solutions, respectively.
We also examined the susceptibility of these peptide hydrogels to enzymatic degradation by incubating them in a 50 FBS/50 PBS media mixture. At the selected time points, the samples were homogenized (release buffer + remaining hydrogel), and the fraction of intact, that is, nondegraded peptide was estimated via HPLC. FBS contains a wide array of proteases and other enzymes that will degrade proteins and peptides. […] Dox release was also measured using a 50 FBS/50 PBS mixture as release media. […] From 24 h onward, similar release profiles were obtained in the presence and absence of FBS, probably due to the fact that by then most of the Dox has been released, and the supernatant release media is reaching saturation (Figure S5).

peptide degraded ([1]; after 5 h, RP-HPLC UV 210 nm, intact peak area vs PBS incubation) [%] | susceptibility to enzymatic degradation, rank ([1]; RP-HPLC) | level of degradation up to 12 h ([1]; RP-HPLC) | hydrogel degradation at later times ([1]; >24 h, RP-HPLC) | level of degradation ([1]; RP-HPLC) | Sequence | cell viability with non-loaded hydrogels (3T3 murine fibroblasts) | dsDNA detected after 48 h as % of the amount at t = 0 (3T3 murine fibroblasts; DMEM 10% FBS, 48 h, PicoGreen) [%]
~40 | most susceptible | – | – | – | KFEFKFEFKK [KF8K] | good cell viabilities | –
– | – | low level of degradation | – | – | FKFEFKFK [FK] | some level of cytotoxicity | 40
– | – | low levels of degradation | more substantial | – | FEFEFKFE [FE] | good cell viabilities | –
– | least susceptible | – | – | minimal degradation | FEFKFEFKK [F8K] | good cell viabilities | –
– | – | – | – | minimal degradation | FEFKFEFK [F8] | good cell viabilities | –
